According to patent publication US20250296955A1, “PIN1 TARGETING COMPOUNDS AND DEGRADERS AND METHODS THEREOF” (The Regents of the University of California, priority 2024, published 2025):
Read-outs that look alike come from different tables or passages of the source. Each block holds one compound with its values, some of them ahead of it. *1 amine or outer side, *2 acyl side, *3 side chain or, on linkers, in order; H or OH if unused. Where a SMILES comes first, the peptide text is derived from it. [ ]: non-standard residue; d: D form. The star is where a group is joined. ξ: configuration not given here. Trp(6-Cl) = N[C@@H](Cc1c[nH]c2cc(Cl)ccc12)C(=O)O; Trp(5-F) = N[C@@H](Cc1c[nH]c2ccc(F)cc12)C(=O)O; Trp(7-Me) = Cc1cccc2c(C[C@H](N)C(=O)O)c[nH]c12; X1 = CC(OP(=O)(O)O)[C@@H](N[*:1])C(=O)[*:2]; Phe(4-CN) = N#Cc1ccc(C[C@H](N)C(=O)O)cc1; 2Nal = N[C@@H](Cc1ccc2ccccc2c1)C(=O)O; mTyr = N[C@@H](Cc1cccc(O)c1)C(=O)O; Pip = O=C(O)[C@@H]1CCCCN1; ξPip = O=C(O)C1CCCCN1; ClAc = O=C(CCl)*

Tests used:
[1] = target: T1, Pin1 (Homo sapiens, UniProt Q13526); settings: Pu W, et al. (2018); read-out: dissociation constant by isothermal titration calorimetric measurements; cited from earlier work
[2] = target: T1, Pin1; test: Pin1 degradation in a panel of human cancer cell lines (western blot); assay type: cell-based; settings: all cell lines, exposed to 5 μM, 24 h (FIG. 4); read-out: Dmax (the maximal level of degradation)
Experimental: In these studies, it was evident that both agents were very effective in degrading Pin1 in all tested human cancer cell lines with DC50 values (the concentration at which 50% degradation was observed)˜500 nM and Dmax (the maximal level of degradation) close to 100% with all cell lines when exposed to 5 μM of either agent (FIG. 4).
(§1) BxPC3, MIA PaCa-2, PANC-1, MDA-MB-231, and PC3 were obtained from the American Type Culture Collection (ATCC) and A549 NucLight Red cells were purchased from Essen Bioscience. BxPC3 and PC3 cells were cultured in RPMI (Corning) while PANC-1 cells were cultured in DMEM (Corning). MIA PaCa-2 cells were also cultured in DMEM, but with the addition of 2.5% horse serum. A549 NucLight cells were cultured in a Ham's F-12 nutriend mixture with GlutaMAX-1 (Gibco). All of the culture media were supplemented with 10% FBS. […]
(§2) At the end of the treatments, cells were lysed with a lysis buffer containing 20 mM Tris, pH 7.4, 120 mM NaCl, 1% Triton X-100, 0.5% sodium deoxycholate, 0.1% SDS, 1% IGEPAL, 5 mM EDTA, protease inhibitor cocktail and PhosSTOP (Sigma-Aldrich). […] Protein concentrations were determined using the Pierce BCA Protein Assay Kit (ThermoFisher Scientific) according to the manufacturer's instruction. […]

[3] = target: T1, Pin1; test: Denaturation thermal shift assay (SYPRO Orange); assay type: binding; design: human Pin1 (residues 1-163); made in house; host or cells: E. coli BL21 (DE3) gold pLysS; settings: for ΔTm: running text and figure legends; for ΔTm (° C.) 30 min: Table 1, Protein:compound 1:2, 20X Sypro Orange, 50 mM phosphate pH 7.5, 150 mM NaCl, 3% DMSO
Excerpt: (§3) Important to the success of structure activity relations studies, robust biochemical, biophysical, and cell-based assays were implemented that enabled rapid and iterative evaluations of test Pin1 targeting agents. First, the DELFIA (Dissociation-enhanced lanthanide fluorescent immunoassay) assay platform was used to derive a robust heterogeneous assay to monitor the ability of test agents to displace the binding between Pin1 and the D-Peptide (Table 1), which was obtained in a biotinylated form (FIG. 10). […] Second, for an orthogonal biophysical assay denaturation thermal shift measurements were used. Pin1 was incubated with vehicle control (buffer with 1% DMSO), or test agents at protein: ligand ratio of 1:2 (20 μM protein-40 μM compound) for 10 min at 10° C. in the presence of the fluorescent dye SYPRO Orange. The samples were gradually exposed to increasing temperature (linear gradient from 10° C. to 95° C.), causing the protein to unfold. This unfolding allowed the fluorescent dye to bind to the protein's exposed hydrophobic residues, resulting in an increase in fluorescence. The thermal shift assay measures the protein's melting temperature (Tm), which is the temperature at which the protein denatures by 50%. Ligands can affect a protein target to thermal denaturation, which could manifest in a positive or negative shift in the protein denaturation temperature (ΔTm) (Bai N, Roder H, Dickson A, & Karanicolas J (2019) Scientific Reports 9; and Kranz J K & Schalk-Hihi C (2011) Fragment-Based Drug Design: Tools, Practical Approaches, and Examples 493:277-298). Using these two assays, a series of commercially available Pin1 inhibitors were profiled (Table 1). The non-covalent agent D-peptide resulted only moderately active, with an IC50 value of ˜3 μM that closely resembled the dissociation constant for this agent determined via isothermal titration calorimetry, and the ˜ 3 μM IC50 value as reported by a fluorescence polarization assay (Pinch B J, et al. (2020) Nat Chem Biol 16(9):979-987). […] (Table 1) was observed.
Thermal shift assays for Pin1 alone and in the presence of the inhibitors were obtained with a BioRad CFX Connect Real-Time PCR Detection System. Each data point was collected in quadruplicate. Each sample was prepared using buffer 50 mM Phosphate pH 7.5, 150 mM NaCl, 1% DMSO. Protein: ligand ratio used was 1:2 (20 μM protein-40 μM compound), and SYPRO Orange was used. Incubation of the Pin1 protein with the compounds was performed at 10° C. for 10 min. Samples were then heated from 10 to 95° C. with heating increments of 0.05° C., over 30 min. Fluorescence intensity was measured within the excitation/emission ranges 470-505/540-700 nm.

[4] = target: T1, Pin1; test: Pin1 degradation in BxPC3 cells (western blot); assay type: cell-based; settings: Bx-PC3 cell line, 25 μM, 24 h (FIG. 1B)
Excerpt: Next, each cell line was exposed to a relatively high concentration of each of the Pin1 inhibitors from Table 1 and measured their ability to cause Pin1 degradation in the Bx-PC3 cell line under the experimental conditions reported in FIG. 1B. […] It was hypothesized that this observed degradation in the series correlated with the increased sensitivity of Pin1 to thermal degradation induced by BJP-07-017-3 in vitro (Table 1).
as §1, §2

[5] = target: T1, Pin1; test: DELFIA displacement assay (displacement of biotinylated D-peptide from 6His-Pin1); assay type: binding; design: human Pin1 (residues 1-163); made in house; host or cells: E. coli BL21 (DE3) gold pLysS
Excerpt: as §3
For the reported covalent agents such as sulfopin (Dubiella C, et al. (2021) Nat Chem Biol 17(9):954-963), BJP-07-017-3 (Pinch B J, et al. (2020) Nat Chem Biol 16(9):979-987), or KPT-6566 (Campaner E, et al. (2017) Nat Commun 8:15772), a 6-h pre-incubation period was included in the DELFIA assay to allow the covalent reaction to take place. For those agents, IC50 values that fell in the low nanomolar range were observed, consistent with what was reported previously for those compounds. […] To make those determinations in a broader panel of cancer cell lines three pancreatic cancer cell lines, BxPC3, MIA-PaCa-2, and PANC-1, the breast cancer cell line MDA-MB-231, the prostate cancer cell line PC3, and the non-small cell lung cancer cell line A549 were chosen. Each cell line represents various states of KRAS activating mutations (for example BxPC3 is wt-KRAS, while MIAPaCa2 carries the KRAS(G12C) mutation, and the PANC-1 the KRAS(G12D) (Miquel M, Zhang S, & Pilarsky C (2021) Front Cell Dev Biol 9:748631), A549 is KRAS(G12S) (Wang H, et al. (2019) EBioMedicine 49:106-117), MDA-MB-231 is KRAS(G13D) (Kim R K, et al. (2015) Exp Mol Med 47(1):e137), PC3 is wt-KRAS (Bouali S, et al. (2009) Oncol Rep 21(3):731-735). Pin1 protein levels in these cell lines were established using a specific Pin1 antibody in western blot analyses (FIG. 1A). The data confirmed that all these selected human cancer cell lines expressed a significant level of Pin1 (FIG. 1A).
Each well of 96-well streptavidin-coated plates (PerkinElmer) was incubated with 100 μL of 200 nM biotinylated D-peptide for 2 h and washed 3 times with a wash solution (PerkinElmer). Subsequently, a mixture containing Pin1, and a serial dilution of the test compounds were pre-incubated for 6 h. Eu-N1-labeled anti-6x-His antibody (PerkinElmer, 1:2000) was then added to this mixture and further incubated in the biotinylated D-peptide-bound plates for another 2 h. […]

[6] = target: T1, Pin1; settings: Pinch B J, et al. (2020); read-out: IC50 value as reported by a fluorescence polarization assay; cited from earlier work
[7] = Table 3, single transition, ± SE of four replicates
[8] = Table 1, 6-h pre-incubation followed by 2-h incubation, ± SD from duplicates
[9] = Table 4, single transition, ± SE of four replicates

T1 sequence (Q13526 whole entry): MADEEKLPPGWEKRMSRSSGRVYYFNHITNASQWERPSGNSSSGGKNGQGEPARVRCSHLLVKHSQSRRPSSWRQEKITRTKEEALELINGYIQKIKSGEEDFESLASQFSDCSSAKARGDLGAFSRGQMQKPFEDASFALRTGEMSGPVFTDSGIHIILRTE

Compound: Nc1nc(OCc2ccc(CNC(=O)C(F)(F)F)cc2)c2nc[nH]c2n1 [API-1]
Kd [1]: 2900 nM

Dmax [2]: ~100% | ΔTm [3]: −8.95 °C
Compound: NC(=O)[C@H](Cc1c[nH]c2ccc(F)cc12)NC(=O)[C@@H]1CCCCN1C(=O)[C@@H]1Cc2c([nH]c3ccccc23)CN1C(=O)CCl [164A10]

Pin1 degradation in cell [4]: significant Pin1 degradation
Compound: CC(C)(C)CN(C(=O)CCl)C1CCS(=O)(=O)C1 (stereo not drawn) [Sulfopin]

IC50 ([5]; Table 3, ± SD from duplicates): 118 ± 21 nM | ΔTm (° C.) [3, 7]: −9.71 ± 0.07 °C
Compound: N#Cc1ccc(C[C@H](NC(=O)CCl)C(=O)N2CCCC[C@H]2C(=O)N[C@@H](Cc2c[nH]c3ccccc23)C(N)=O)cc1 [158G4] (ClAc-[Phe(4-CN)]-[Pip]-Trp-NH2)

Compound: CN(C(=O)CCl)[C@@H](Cc1ccccc1)C(=O)N1CCCC[C@H]1C(=O)N[C@@H](CC1CNc2ccccc21)C(=O)N[C@@H](CCCNC(N)=O)C(N)=O (stereo partly drawn) [158A12, reference compound]
Pin1 degradation in cell [4]: significant Pin1 degradation | IC50 [5, 8]: 9 ± 1 nM | ΔTm (° C.) 30 min ([3]; ± SE of four replicates): −6.40 ± 0.04 °C | ΔTm [3]: −6.4 °C

Compound: O=C(NCCc1c[nH]c2cc(Cl)cc(Cl)c12)[C@@H]1CCCCN1C(=O)[C@@H]1Cc2c([nH]c3ccccc23)CN1C(=O)CCl [164A5]
IC50 ([5]; Table 4, ± SD from duplicates): 433 ± 65 nM | share of first denaturation transition ([3]; Table 4, percentage in brackets after first ΔTm): 70% | share of second denaturation transition ([3]; Table 4, percentage in brackets after second ΔTm): 30% | ΔTm (° C.), first of two denaturation transitions ([3]; Table 4, two transitions observed, likely incomplete complex formation): +0.66 ± 0.28 °C | ΔTm (° C.) ([3]; Table 5, only one transition given): +0.66 ± 0.28 °C

Dmax [2]: ~100% | ΔTm [3]: −8.41 °C
Compound: NC(=O)[C@H](Cc1c[nH]c2ccccc12)NC(=O)[C@@H]1CCCCN1C(=O)[C@H](Cc1c[nH]c2cc(Cl)ccc12)NC(=O)CCl [158H9] (ClAc-[Trp(6-Cl)]-[Pip]-Trp-NH2)

IC50 ([5]; Table 4, ± SD from duplicates): 91 ± 9 nM | ΔTm (° C.) [3, 9]: −10.11 ± 0.20 °C
Compound: Cc1cccc2c(C[C@H](NC(=O)CCl)C(=O)N3CCCC[C@H]3C(=O)N[C@@H](Cc3c[nH]c4ccccc34)C(N)=O)c[nH]c12 [158H7] (ClAc-[Trp(7-Me)]-[Pip]-Trp-NH2)

IC50 ([5]; Table 2, ± SD from duplicates): 146 ± 19 nM | ΔTm (° C.) ([3]; Table 2, ± SE of four replicates): −10.40 ± 0.04 °C
Compound: NC(=O)[C@H](Cc1c[nH]c2ccccc12)NC(=O)[C@@H]1CCCCN1C(=O)[C@H](Cc1ccccc1)NC(=O)CCl [158D10] (HELM PEPTIDE1{[O=C(CCl)[*:2]].F.[O=C([C@@H]1CCCCN1[*:1])[*:2]].W.[am]}$$$$V2.0)

IC50 ([5]; Table 3, ± SD from duplicates): 34 ± 2 nM | ΔTm (° C.) [3, 7]: −8.28 ± 0.04 °C
Compound: NC(=O)[C@H](Cc1c[nH]c2ccccc12)NC(=O)[C@@H]1CCCCN1C(=O)[C@H](Cc1cccc(O)c1)NC(=O)CCl [158D9] (ClAc-[mTyr]-[Pip]-Trp-NH2)

IC50 ([5]; Table 4, ± SD from duplicates): 43.5 ± 0.8 nM | ΔTm (° C.) [3, 9]: −9.81 ± 0.16 °C
Compound: NC(=O)[C@H](Cc1c[nH]c2ccccc12)NC(=O)[C@@H]1CCCCN1C(=O)[C@H](Cc1c[nH]c2ccc(F)cc12)NC(=O)CCl [158H8] (ClAc-[Trp(5-F)]-[Pip]-Trp-NH2)

IC50 ([5]; Table 3, ± SD from duplicates): 44 ± 8 nM | IC50 ([5]; running text and figure legends): 43 nM | ΔTm (° C.) [3, 7]: −9.42 ± 0.18 °C
Compound: NC(=O)[C@H](Cc1c[nH]c2ccccc12)NC(=O)[C@@H]1CCCCN1C(=O)[C@H](Cc1c[nH]c2ccccc12)NC(=O)CCl [158G9] (HELM PEPTIDE1{[O=C(CCl)[*:2]].W.[O=C([C@@H]1CCCCN1[*:1])[*:2]].W.[am]}$$$$V2.0)

Compound: CC(=O)N[C@@H](Cc1ccccc1)C(=O)N[C@@H](C(=O)N1CCCCC1C(=O)N[C@@H](Cc1ccc2ccccc2c1)C(=O)N[C@@H](CCC(N)=O)C(N)=O)C(C)OP(=O)(O)O (stereo partly drawn) [158A1, reference compound] (Ac-F[X1][ξPip][2Nal]Q-NH2)
IC50 [6]: ~3000 nM | IC50 [5]: ~3000 nM | IC50 [5, 8]: 2910 ± 103 nM | ΔTm (° C.) 30 min ([3]; ± SE of four replicates): 3.40 ± 0.16 °C | ΔTm [3]: 3.4 °C
